In patent publication US20190159457A1, “Combinatorial Compositions of Benzoxaboroles and Biologic Agents” (Boragen, Inc., priority 2017, published 2019) one finds MIC and inhibition data, which are given here for one compound.

Some results are limits rather than exact numbers.

What all share (assay type): cell-based
The test system of one assay is Bacillus subtilis. As to the kind of experiment: Toxicity of oxaborole compound on Bacillus subtilis (MIC). The conditions noted are these: 48 hours, about 37 °C, 1×10^5 CFU/mL. Here is the method:
The final concentration of Bacillus subtilis was 1×10^5 CFU/mL.
Plates sealed with clear polyester film (VWR) were incubated at a temperature of about 37° C. The progress of Bacillus subtilis growth was monitored at 48 hours.

Assay [1] concerns Botrytis cinerea B05.10 (B05.10). Put plainly: Inhibition rate of fungal hyphae growth on PDA petri dish. The settings on record: Bacillus subtilis −. On the procedure: (§1) The synergistic or additive effect of Bacillus subtilis in combination with an oxaborole compound on fungicidal compounds was evaluated by determining the inhibition rate of fungal growth on a petri dish. The oxaborole compound used for the example was BAG8. The inhibition rate was calculated as: inhibition %=(X−Y)/X*100, where X is the diameter of fungal hyphae grown on control without any fungicidal compound or beneficial bacteria.
(§2) The ability of Bacillus subtilis to inhibit growth of the four example fungal pathogens was evaluated by determining the inhibition rate of fungal hyphae on the PDA petri dishes (diameter of 100 mm) with the bacteria (initial bacterial cells: 2000CFU). 0.2 mL of Bacillus subtilis (lx 10^3, 1×10^4, 1×10^5, 1×10^6FU/mL) was spread on the PDA plates. The plates were cultured at 37° C. overnight, followed by inoculating the fresh fungal agar plugs ( 3/16 inch, diameter). The PDA plates with fungal agar plugs were cultured at 25° C. for 4-7 days, and then diameters of hyphae were measured. The inhibition rate was calculated as: inhibition %=(X−Y)/X*100, where X is the diameter of fungal hyphae grown on control without the bacteria. Inhibition rate of 100% means that the fungus cannot grow on PDA medium.
(§3) Testing was performed to compare inhibition performance of BAG8 by itself versus BAG8 in combination with Bacillis subtilis. Initially, the PDA plates (diameter of 100 mm) were prepared with various concentrations (0, 0.2, 0.5, 1, 2, 5 and 10 ug/mL) of the BAG8 compound;
(§4) Then, 0.2 mL of Bacillus subtilis (1×10^4CFU/mL) were spread onto some of the PDA plates with fungicide compounds. The […] Botrytis cinerea, Fusarium oxysporum f sp. Cubense, Mycosphaerella graminicola, and Sclerotinia sclerotiorum.
(§5) The PDA plates with the combined BAG8 and Bacillus subtilis were inoculated with the fresh fungal agar plugs ( 3/16 inch, diameters) and the plates were cultured at 25° C. for 4-7 days, and then diameters of hyphae were measured. The inhibition rate was calculated as: inhibition %=(X−Y)/X*100, where X is the diameter of fungal hyphae grown on control without the bacteria.

Assay [2] deals with Mycosphaerella graminicola (SLB). Described as above. The settings on record: Zymoseptoria tritici, Bacillus subtilis −. Here is the method: as §1, §2, §3, §4, §5
For assay [3], the system named is Sclerotinia sclerotiorum 1980 (Ss1980). The assay is described as above. The conditions noted are these: Bacillus subtilis −. On the procedure:
as §1, §2, §3, §4, §5

Assay [4] concerns Fusarium oxysporum f sp. cubense tropical race 4 (FOC.TR4). Described as above. The settings on record: Bacillus subtilis −. On the procedure:
as §1, §2, §3, §4, §5

The term MIC denotes the least concentration at which growth counts as inhibited. The low end stands for inhibition by little substance, the high end for a need for much substance. By inhibition is commonly meant the drop in the measured response relative to a control, in per cent. Consider `OB1OCc2cc(Cl)ccc21` [BAG8, 5-chlorobenzo[c][1,2]oxaborol-1(3H)-ol], for which the MIC against Bacillus subtilis is > 25 µg/mL. Besides, the inhibition at 0.2 µg/mL is 10% in assay [1] (BAG8 0.2 ug/mL), 6% in assay [2] (BAG8 0.2 ug/mL), 12% in assay [3] (BAG8 0.2 ug/mL) and 9% in assay [4] (BAG8 0.2 ug/mL). Also, the inhibition at 0.5 µg/mL in assay [1] (BAG8 0.5 ug/mL) was 23%; in assay [2] (BAG8 0.5 ug/mL), 38%; in assay [3] (BAG8 0.5 ug/mL), 48%; in assay [4] (BAG8 0.5 ug/mL), 47%. Also, the inhibition at 1 µg/mL in assay [1] (BAG8 1 ug/mL) was 69%; in assay [2] (BAG8 1 ug/mL), 93%; in assay [3] (BAG8 1 ug/mL), 94%; in assay [4] (BAG8 1 ug/mL), 95%. The inhibition at 2 µg/mL was 98% in assay [1] (BAG8 2 ug/mL), 96% in assay [2] (BAG8 2 ug/mL), 98% in assay [3] (BAG8 2 ug/mL) and 94% in assay [4] (BAG8 2 ug/mL).
